Marks after values point to notes of the source that are not given here.
Experiments:
[1] = system: recurrent ovarian cancer; assay: Phase 1b study: DPX-Survivac with low dose cyclophosphamide and epacadostat, tumor response by modified RECIST 1.1; type: in vivo, human; conditions: for CR (complete response), number of subjects / DCR (CR + PR + SD), disease control rate / DCR (CR + PR + SD), number of subjects / ORR (overall response rate), % of subjects / ORR (overall response rate), number of subjects / PR (partial response), % of subjects / PR (partial response), number of subjects / Partial response, % of subjects / Partial response, subjects/N / Progressive disease, % of subjects / Progressive disease, subjects/N / Stable disease, % of subjects / Stable disease, subjects/N / Tumor regressions, % of subjects / Tumor regressions, subjects/N / PD (progressive disease), % of subjects / PD (progressive disease), subjects/N / PR (partial response), subjects/N: with DPX-Survivac + low dose CPA
[2] = system: survivin; assay: Cell mediated immunity: survivin-specific T cell response by ELISpot (Phase 1b); type: in vivo, human; conditions: with DPX-Survivac + low dose CPA
Procedure: Cell Mediated Immunity was determined by immunogenicity analysis and describe as the percentage of subjects with a positive immune response to one or more epitopes in the T cell activation therapeutic as well as changes in immune cell infiltration to the tumor. For ELISpot, antigen-specific response rate greater than Mean+2SD (typically>64 SFU/106 PBMC) obtained from pre-treatment and/or unstimulated/background cells was considered a positive response. Further, based on the magnitude of ELISpot response following treatment, subjects were classified as low (>64 to <512 SFU/106 PBMC) or high (>512 SFU/106 PBMC) immune responders to treatment or described as having a high and sustained immune response (3 separate time points >512 SFU/106 PBMC).

[3] = all epacadostat doses (N = 15), total target lesion size < 5 cm
[4] = all epacadostat doses (N = 38), total target lesion size ≥ 5 cm
[5] = epacadostat 100 mg (N = 5), sum of target lesion at baseline <5 cm
[6] = epacadostat 100 mg (N = 14), all subjects
[7] = epacadostat 100 mg BID (N = 5), total target lesion size < 5 cm
[8] = epacadostat 100 mg BID (N = 9), total target lesion size ≥ 5 cm
[9] = epacadostat 100 mg and 300 mg, Total (N = 53)
[10] = epacadostat 300 mg (N = 10), sum of target lesion at baseline <5 cm, partially monitored data
[11] = epacadostat 300 mg (N = 39), all subjects, partially monitored data
[12] = epacadostat 300 mg BID (N = 10), total target lesion size < 5 cm
[13] = epacadostat 300 mg BID (N = 29), total target lesion size ≥ 5 cm
[14] = epacadostat Total (N = 15), sum of target lesion at baseline <5 cm

NS(=O)(=O)NCCNc1nonc1/C(=N\c1ccc(F)c(Br)c1)NO [Epacadostat]
dose related activity of epacadostat ([1]; preliminary analysis, 100 mg vs 300 mg combined with DPX-Survivac and low dose CPA): absence of dose related activity
CR (complete response), number of subjects [1, 3]: 0
DCR (CR + PR + SD), disease control rate [1, 3]: (66.7%)
DCR (CR + PR + SD), number of subjects [1, 3]: 10
ORR (overall response rate), % of subjects [1, 3]: (26.7%)
ORR (overall response rate), number of subjects [1, 3]: 4
PR (partial response), % of subjects [1, 3]: (26.7%)
PR (partial response), number of subjects [1, 3]: 4
CR (complete response), number of subjects [1, 4]: 0
DCR (CR + PR + SD), disease control rate [1, 4]: (39.5%)
DCR (CR + PR + SD), number of subjects [1, 4]: 15
ORR (overall response rate), % of subjects [1, 4]: (2.6%)
ORR (overall response rate), number of subjects [1, 4]: 1
PR (partial response), % of subjects [1, 4]: (2.6%)
PR (partial response), number of subjects [1, 4]: 1
Partial response, % of subjects [1, 5]: (60.0%)
Partial response, subjects/N [1, 5]: 3/5
Progressive disease, % of subjects [1, 5]: (0%)
Progressive disease, subjects/N [1, 5]: 0/5
Stable disease, % of subjects [1, 5]: (40.0%)
Stable disease, subjects/N [1, 5]: 2/5
Tumor regressions, % of subjects [1, 5]: (100%)
Tumor regressions, subjects/N [1, 5]: 5/5
PD (progressive disease), % of subjects [1, 6]: (35.7%)
PD (progressive disease), subjects/N [1, 6]: 5/14
PR (partial response), % of subjects [1, 6]: (21.4%)
PR (partial response), subjects/N [1, 6]: 3/14
Tumor regressions, % of subjects [1, 6]: (35.7%)
Tumor regressions, subjects/N [1, 6]: 5/14
CR (complete response), number of subjects [1, 7]: 0
DCR (CR + PR + SD), disease control rate [1, 7]: (100%)
DCR (CR + PR + SD), number of subjects [1, 7]: 5
ORR (overall response rate), % of subjects [1, 7]: (60%)
ORR (overall response rate), number of subjects [1, 7]: 3
PR (partial response), % of subjects [1, 7]: (60.0%)
PR (partial response), number of subjects [1, 7]: 3
CR (complete response), number of subjects [1, 8]: 0
DCR (CR + PR + SD), disease control rate [1, 8]: (33.3%)
DCR (CR + PR + SD), number of subjects [1, 8]: 3
ORR (overall response rate), number of subjects [1, 8]: 0
PR (partial response), number of subjects [1, 8]: 0
PD (progressive disease), % of subjects [1, 9]: (34.0%)
PD (progressive disease), subjects/N [1, 9]: 18/53
PR (partial response), % of subjects [1, 9]: (9.4%)
PR (partial response), subjects/N [1, 9]: 5/53
Tumor regressions, % of subjects [1, 9]: (20.1%)
Tumor regressions, subjects/N [1, 9]: 11/53
Partial response, % of subjects [1, 10]: (10.0%)
Partial response, subjects/N [1, 10]: 1/10
Progressive disease, % of subjects [1, 10]: (50.0%)
Progressive disease, subjects/N [1, 10]: 5/10
Stable disease, % of subjects [1, 10]: (40.0%)
Stable disease, subjects/N [1, 10]: 4/10
Tumor regressions, % of subjects [1, 10]: (30.0%)
Tumor regressions, subjects/N [1, 10]: 3/10
PD (progressive disease), % of subjects [1, 11]: (33.3%)
PD (progressive disease), subjects/N [1, 11]: 13/39
PR (partial response), % of subjects [1, 11]: (5.1%)
PR (partial response), subjects/N [1, 11]: 2/39
Tumor regressions, % of subjects [1, 11]: (15.4%)
Tumor regressions, subjects/N [1, 11]: 6/39
CR (complete response), number of subjects [1, 12]: 0
DCR (CR + PR + SD), disease control rate [1, 12]: (50.0%)
DCR (CR + PR + SD), number of subjects [1, 12]: 5
ORR (overall response rate), % of subjects [1, 12]: (10.0%)
ORR (overall response rate), number of subjects [1, 12]: 1
PR (partial response), % of subjects [1, 12]: (10.0%)
PR (partial response), number of subjects [1, 12]: 1
CR (complete response), number of subjects [1, 13]: 0
DCR (CR + PR + SD), disease control rate [1, 13]: (41.4%)
DCR (CR + PR + SD), number of subjects [1, 13]: 12
ORR (overall response rate), % of subjects [1, 13]: (3.4%)
ORR (overall response rate), number of subjects [1, 13]: 1
PR (partial response), % of subjects [1, 13]: (3.4%)
PR (partial response), number of subjects [1, 13]: 1
Partial response, % of subjects [1, 14]: (26.7%)
Partial response, subjects/N [1, 14]: 4/15
Progressive disease, % of subjects [1, 14]: (33.3%)
Progressive disease, subjects/N [1, 14]: 5/15
Stable disease, % of subjects [1, 14]: (33.3%)
Stable disease, subjects/N [1, 14]: 5/15
Tumor regressions, % of subjects [1, 14]: (53.3%)
Tumor regressions, subjects/N [1, 14]: 8/15
Positive T cell response (survivin), % of subjects [2, 5]: (100%)
Positive T cell response (survivin), subjects/evaluable [2, 5]: 4/4
Positive T cell response (survivin), % of subjects [2, 6]: (100%)
Positive T cell response (survivin), subjects/evaluable [2, 6]: 11/11
Positive T cell response (survivin), % of subjects [2, 9]: (81.5%)
Positive T cell response (survivin), subjects/evaluable [2, 9]: 22/27
Positive T cell response (survivin), % of subjects [2, 10]: (25%)^a
Positive T cell response (survivin), subjects/evaluable [2, 10]: 1/4
Positive T cell response (survivin), % of subjects [2, 11]: (56.3%)^b
Positive T cell response (survivin), subjects/evaluable [2, 11]: 9/16

Source: patent publication US20220125903A1, “METHODS FOR IMPROVING THE EFFICACY OF A SURVIVIN THERAPEUTIC IN THE TREATMENT OF TUMORS” (IMMUNOVACCINE TECHNOLOGIES INC., priority 2018, published 2022)
